Test [1] concerns B. subtilis 168. Format: cell-based. The note with it: Mueller-Hinton Broth. Here is the method:
(§1) Antibiotic susceptibility was tested using standard procedures in Mueller-Hinton Broth for most strains. Enterococcus strains were grown in Brain Heart Infusion media (BHI; BD Biosciences). Streptomyces MICs were determined in Bennett’s media (10 g potato starch, 2 g casamino acids, 1.8 g yeast extract, 0.2 g KCl, 0.2 g MgSO4·7H2O, 0.24 g NaNO3, 4 mg FeSO4·7H2O, 1 L ddH2O, pH 6.8).

Test [2] concerns E. coli BW25113. Format: cell-based. The following applies: Mueller-Hinton Broth. Here is the method:
as §1

In test [3] the test system is E. coli BW25113ΔbamBΔtolC. The test is classed as cell-based. The following applies: Mueller-Hinton Broth. Here is the method: as §1
For test [4], the system named is E. faecium ATCC19434. Format: cell-based. The following applies: Brain Heart Infusion media. Here is the method:
as §1

For test [5], the system named is E. faecium ATCC29212. Format: cell-based. The following applies: Brain Heart Infusion media. Here is the method:
as §1

The subject of test [6] is E. faecium ATCC51299 (VREB). The test is classed as cell-based. The note with it: Brain Heart Infusion media. Here is the method: as §1
The subject of test [7] is E. faecium ATCC70022 (VREA). The test is classed as cell-based. The note with it: Brain Heart Infusion media. Here is the method: as §1
Test [8] deals with S. aureus ATCC29213. Format: cell-based. The following applies: Mueller-Hinton Broth. Here is the method: as §1
Test [9] deals with S. venezuelae ATCC10712. Format: cell-based. The following applies: Bennett's media. As for the experimental part:
as §1

Test [10] deals with MRSA USA300. The test is classed as cell-based, S. aureus. The note with it: Mueller-Hinton Broth. Here is the method: as §1
Test [11] relates to Vancomycin intermediate MRSA Mu50. The test is classed as cell-based, S. aureus. The note with it: Mueller-Hinton Broth. As for the experimental part:
as §1

The subject of test [12] is hVISA MRSA Mu3. The test is classed as cell-based, S. aureus. The following applies: Mueller-Hinton Broth. Here is the method: as §1
In test [13] the test system is S. coelicolor M1154/pAMX4/pGP6738. Description: MIC, antibiotic susceptibility testing. The test is classed as cell-based. The following applies: Bennett's media. As for the experimental part:
as §1

Test [14] has as its system S. coelicolor M1154. Nature of the test: MIC, antibiotic susceptibility testing. The test is classed as cell-based. The following applies: Bennett's media. Here is the method: as §1
The conditions of test [15]: amide linkage changed to an ester; cited from earlier work. An excerpt: Glycopeptide antibiotics (GPAs), such as vancomycin and teicoplanin (Fig. 1a), are microbial natural products (NPs) that are essential for the control of infections caused by Gram-positive pathogens. Vancomycin and teicoplanin inhibit bacterial cell wall biosynthesis by binding to the D-Alanine-D-Alanine terminating dipeptide of growing peptidoglycan and its extracellular precursors. Like all antibiotics, GPAs are vulnerable to resistance. Vancomycin resistance occurs through reprogramming of cell wall biosynthesis, mediated by a vanRSHAX resistance cassette that replaces the D-Ala-D-Ala te ...

Test [16] concerns Bacillus subtilis 168. Description: Antibacterial activity assay (bioassay) of fermentation extracts. Format: cell-based. The note with it: B. subtilis 168. An excerpt: Supplementary Fig. 4. Bioassay of corbomycin heterologous expression extracts against B. subtilis 168. Crude extracts from S. coelicolor M1154/pGP1529 strain do […]
from S. coelicolor M1154/pAMX4/pGP1529. […]
parental strain S. sp. WAC01529 are likely the result of uncharacterized compounds produced by this strain, as equivalent amounts of purified corbomycin as are present […]
Source data are provided as a Source Data file.
(1 picture or pasted object on this page, not shown here)

Test [17] relates to panel of indicator strains. Description: MIC determination against a panel of indicator strains, comparison of Type V GPAs. Format: cell-based. Here is the method: as §1
Test [18] deals with B. subtilis 168. Description: Brightfield microscopy of cell morphology at sub-MIC. Format: cell-based. The note with it: B. subtilis 168 grown with sub-MIC (0.6× MIC, 3.2 µg/mL GP6738) to mid-log phase.
The subject of test [19] is B. subtilis 168. Description: Cell lysis assay / growth tracking (OD600). The test is classed as cell-based. Here is the method:
Early exponential phase B. subtilis 168 (OD600 ~0.25) grown in LB media was dispensed 100 µL per well into a round bottom 96 well plate. Antibiotics were supplemented to the appropriate concentration, and where appropriate lytic agents were added (50 µg/mL fosfomycin, 100 µg/mL ampicillin, 100 mM sodium azide). The plate was covered with a clear, breathable film and OD600 was monitored on a Tecan sunrise microplate reader at 37 °Cwith shaking.

Test [20] deals with mutanolysin. Description: Peptidoglycan autolysin digestion in vitro, mutanolysin. Format: biochemical. The following applies: mutanolysin 20 µg/mL, 1 mg/mL B. subtilis PG, 20 mM sodium acetate pH 6.5, 30 min preincubation, OD600, 37 °C, triplicate. Here is the method: (§2) The muramidase mutanolysin was purchased from Sigma. The glucosaminidase domain from LytD was cloned from B. subtilis 168 into pET28 between NcoI and XhoI restriction sites for introduction of C-term 6× His. Construct was expressed from E. coli BL21(DE3) pLysS by inoculating 1 L of LB media 1:50 from an overnight culture, then growing at 37 °C until OD600 reached 0.6, at which time the cells were induced with 1 mM IPTG and grown for 18 h at 16 °C. Native LytD-6× His was purified by Ni-NTA affinity chromatography and cation exchange chromatography. Protein purity was >95% as assessed by SDS-PAGE analysis.
(§3) B. subtilis peptidoglycan for binding and digestion assays was prepared by harvesting the cells (OD600 0.6–0.7), boiled in 4% SDS, and washed and sonicated to break up sacculi, followed by α-amylase and DNase treatment, and digested with pronase overnight. The peptidoglycan was boiled in 2% SDS again, washed, and teichoic acids were hydrolysed with 1 M HCl. The peptidoglycan was washed with water to pH 6.0 and lyophilized to use. Peptidoglycan was digested under optimized conditions with either mutanolysin (20 µg/mL, 1 mg/mL PG, 20 mM sodium acetate, pH 6.5) or LytD (10 µg/mL, 1 mg/mL PG, 200 mM NaCl, 50 mM MES-NaOH, pH 5.5). […] The plate was covered with a clear, breathable film to prevent evaporation, and OD600 was tracked on a Tecan sunrise microplate reader shaking at 37 °C.

Test [21] has as its system LytD. Description: Peptidoglycan autolysin digestion in vitro, LytD. The note with it: LytD 10 µg/mL, 1 mg/mL B. subtilis PG, 200 mM NaCl, 50 mM MES-NaOH pH 5.5, 30 min preincubation, OD600, 37 °C, triplicate. Format: biochemical, B. subtilis 168. As for the experimental part: as §2, §3
Test [22] can be described thus: Peptidoglycan binding assay. The arrangement: species or system B. subtilis. The note with it: 0.1 mg/mL GP6738 in water with 20% DMSO, PG 25:1 to 200:1 w/w, 1–2 h at 37 °C, unbound compound by HPLC. As for the experimental part: To assess peptidoglycan binding, GP6738 was diluted to 0.1 mg/mL in water with 20% (v/v) DMSO to aid GP6738 solubility. For each 100 μL binding assay, B. subtilis peptidoglycan was added to 0 mg/mL, 2.5 mg/mL, 5 mg/mL, 10 mg/mL or 20 mg/mL for 0, 25:1, 50:1, 100:1 and 200:1 w/w ratios, respectively. Mixtures were incubated for 1–2 h at 37 °C, then centrifuged for 10 min to thoroughly pellet insoluble material, and the supernatant was removed for analysis. Samples were prepared for HPLC analysis by the addition of NH4OH to 0.01% (v/v), and 50 µL was injected on the HPLC. Analysis was performed using a Thermo Hypersil GOLD aQ C18 4.6 × 150 mm column and the following gradient at 0.8 mL/min, 40 °C: t = 0–2 min 0% solvent B, t = 10–13 min 65% solvent B, t = 14 min 0% solvent B (solvent A: 0.01% v/v NH4OH in water [pH 9.6] and solvent B: ACN).

In brackets after ≈: the same amount, converted by molar mass.

These results are taken from publication PMC7567792, “GPAHex-A synthetic biology platform for Type IV–V glycopeptide antibiotic production and discovery” (Nature Communications, 2020).

On to `CN[C@H](CC(C)C)C(=O)N[C@H]1C(=O)N[C@@H](CC(N)=O)C(=O)N[C@H]2C(=O)N[C@H]3C(=O)N[C@H](C(=O)N[C@H](C(=O)O)c4cc(O)cc(O)c4-c4cc3ccc4O)[C@H](O)c3ccc(c(Cl)c3)Oc3cc2cc(c3O[C@@H]2O[C@H](CO)[C@@H](O)[C@H](O)[C@H]2O[C@H]2C[C@](C)(N)[C@H](O)[C@H](C)O2)Oc2ccc(cc2Cl)[C@H]1O` [Vancomycin], for which the MIC in test [1] is 0.25 µg/mL (≈ 0.173 µM); in [2] it was 256 µg/mL (≈ 177 µM); in test [3], 8 µg/mL (≈ 5.52 µM); in [4], 2 µg/mL (≈ 1.38 µM); in [5], 2 µg/mL (≈ 1.38 µM); in test [6], 32 µg/mL (≈ 22.1 µM). The MIC in [7] is over 256 µg/mL; in test [8], 1 µg/mL (≈ 0.69 µM); in test [9] it was 0.25 µg/mL (≈ 0.173 µM); in test [10], 1 µg/mL (≈ 0.69 µM); in test [11], 8 µg/mL (≈ 5.52 µM); in [12], 2 µg/mL (≈ 1.38 µM). Besides, the MIC in [13] and in test [14] was 256 µg/mL (≈ 177 µM) throughout. Moreover, the “decrease of affinity of vancomycin on change of D-Ala-D-Ala to D-Ala-D-Lactate” value in test [15] was 1000 fold.

Turning to Corbomycin, the MIC was 1 µg/mL in test [1]; over 256 µg/mL in test [2]; 32 µg/mL in test [3]; 4 µg/mL in [4]; 4 µg/mL in test [5]; 4 µg/mL in [6]. For the same molecule, the MIC in [7] came out at 4 µg/mL; in [8], 1 µg/mL; in test [9], 2 µg/mL; in test [10], 1 µg/mL; in test [11] it was 1 µg/mL; in test [12] it was 1 µg/mL. Besides, the MIC in [13] and in test [14] was 4 µg/mL each time. In addition, in test [16], the “growth inhibition / zones of inhibition” value is given as “do not give zones”.

For the molecule Complestatin, the MIC in test [1] was 0.5 µg/mL; in [2], over 256 µg/mL; in test [3] it was 64 µg/mL; in test [4], 64 µg/mL; in test [5] it was 32 µg/mL; in test [6], 32 µg/mL. In addition, the MIC was determined as 64 µg/mL in test [7]; 2 µg/mL in test [8]; 2 µg/mL in test [9]; 2 µg/mL in [10]; 0.5 µg/mL in test [11]; 0.5 µg/mL in [12]. Also, the MIC in test [14] came to 4 µg/mL.

On to `CC(C)C(NC(=O)C(NC(=O)C(N)c1cc(O)cc(O)c1)c1cc(O)cc(O)c1)C(=O)NC1Cc2c[nH]c3cc(ccc23)-c2cc3cc(c2O)Oc2ccc(cc2)CC(C(=O)NC(C(=O)O)c2cc(O)cc(O)c2)NC(=O)C(c2cc(O)cc(O)c2)NC(=O)C3NC(=O)C(c2cc(O)cc(O)c2)NC1=O` (stereo not shown) [GP6738], for which the MIC in [1] was 4 µg/mL (≈ 2.78 µM); in test [2] it was over 256 µg/mL; in [3] it was over 256 µg/mL; in [4], 64 µg/mL (≈ 44.5 µM); in [5] it was 64 µg/mL (≈ 44.5 µM); in test [6], 64 µg/mL (≈ 44.5 µM). Further, the MIC in test [7] is 64 µg/mL (≈ 44.5 µM); in test [8] it was 4 µg/mL (≈ 2.78 µM); in [9], 16 µg/mL (≈ 11.1 µM); in test [10], 4 µg/mL (≈ 2.78 µM); in test [11], 2 to 4 µg/mL; in [12], 4 µg/mL (≈ 2.78 µM). The minimum inhibitory concentration (MIC) in test [13] and in test [14] was 16 µg/mL (≈ 11.1 µM) in each case. Moreover, the “fold higher MIC of GP6738 compared to corbomycin” value in test [17] is on record as 2–16 fold. In test [18], the cell morphology entry is “characteristic elongated cell morphology of autolysin inhibition”. Further, the “bacteriostatic or bacteriolytic effect, growth tracking” value in test [19] (B. subtilis 168, 10-fold MIC, OD600, 37 °C, n = 3) is given as “bacteriostatic phenotype”. In [19] (B. subtilis 168, 10× MIC, 50 µg/mL fosfomycin, 100 µg/mL ampicillin or 100 mM sodium azide, OD600, n = 3), the “block of cell lysis induced by lytic agents” value was “able to block cell lysis”. The “block of peptidoglycan digestion by mutanolysin” value in [20] is “blocks cell wall digestion”. Besides, the “block of peptidoglycan digestion by LytD” value in test [21] is recorded as “blocks cell wall digestion”. The binding to peptidoglycan result in [22] is “binding to peptidoglycan”.

By MIC is commonly meant the lowest concentration that inhibits growth of the organism. The low end stands for a more susceptible organism, the high end for a less susceptible organism.
